In ChEMBL document CHEMBL1201862, “PubChem BioAssay data set” (2004):
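Dose response: 5 concentrations. Exposure: 48 h. Format: 96-well plates. Endpoint: linear interpolation; highest concentration if not reached. Here, GI50 denotes the concentration required for 50% inhibition of growth.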 The source made the active and inactive calls. Rule as the data show it: active = GI50 up to about 1.1 µM and inactive = higher.

What was measured:
Test in all cases: DTP human tumour cell line panel, 48 h
[1] = system: 786-0
[2] = system: A498
[3] = system: A549
[4] = system: ACHN
[5] = system: CCRF-CEM
[6] = system: COLO 205
[7] = system: DLD-1
[8] = system: DMS-273
[9] = system: EKVX
[10] = system: HCC 2998
[11] = system: HCT-116
[12] = system: HCT-15
[13] = system: HL-60
[14] = system: HOP-18
[15] = system: HOP-62
[16] = system: HOP-92
[17] = system: HT-29
[18] = system: IGROV-1
[19] = system: K562
[20] = system: KM-20L2
[21] = system: KM12
[22] = system: LOX IMVI
[23] = system: LXFL 529
[24] = system: M14
[25] = system: M19-MEL
[26] = system: MOLT-4
[27] = system: Malme-3M
[28] = system: NCI-H23
[29] = system: NCI-H460
[30] = system: OVCAR-3
[31] = system: OVCAR-4
[32] = system: OVCAR-5
[33] = system: OVCAR-8
[34] = system: RPMI-8226
[35] = system: RXF 393
[36] = system: RXF 631
[37] = system: SF-268
[38] = system: SF-295
[39] = system: SF-539
[40] = system: SK-MEL-28
[41] = system: SK-MEL-2
[42] = system: SK-MEL-5
[43] = system: SK-OV-3
[44] = system: SN12C
[45] = system: SNB-19
[46] = system: SNB-75
[47] = system: SNB-78
[48] = system: SR
[49] = system: SW-620
[50] = system: TK-10
[51] = system: U-251
[52] = system: UACC-257
[53] = system: UACC-62
[54] = system: UO-31
[55] = system: XF498
[56] = system: CAKI-1
[57] = system: DMS-114
[58] = system: NCI-H226

CCOC(=O)C=C1CCN(C(=O)c2ccccc2)CC1
GI50 [1]: > 100 µM (inactive)
GI50 [2]: > 100 µM (inactive)
GI50 [3]: > 100 µM (inactive)
GI50 [4]: > 100 µM (inactive)
GI50 [5]: > 100 µM (inactive)
GI50 [6]: > 100 µM (inactive)
GI50 [7]: > 100 µM (inactive)
GI50 [8]: > 100 µM (inactive)
GI50 [9]: > 100 µM (inactive)
GI50 [10]: > 100 µM (inactive)
GI50 [11]: > 100 µM (inactive)
GI50 [12]: > 100 µM
GI50 [13]: > 100 µM (inactive)
GI50 [14]: > 100 µM (inactive)
GI50 [15]: > 100 µM (inactive)
GI50 [16]: > 100 µM (inactive)
GI50 [17]: > 100 µM (inactive)
GI50 [18]: > 100 µM (inactive)
GI50 [19]: > 100 µM (inactive)
GI50 [20]: > 100 µM (inactive)
GI50 [21]: > 100 µM (inactive)
GI50 [22]: > 100 µM (inactive)
GI50 [23]: > 100 µM (inactive)
GI50 [24]: > 100 µM (inactive)
GI50 [25]: > 100 µM (inactive)
GI50 [26]: > 100 µM (inactive)
GI50 [27]: > 100 µM (inactive)
GI50 [28]: > 100 µM (inactive)
GI50 [29]: > 100 µM (inactive)
GI50 [30]: > 100 µM (inactive)
GI50 [31]: > 100 µM (inactive)
GI50 [32]: > 100 µM (inactive)
GI50 [33]: > 100 µM (inactive)
GI50 [34]: > 100 µM (inactive)
GI50 [35]: > 100 µM (inactive)
GI50 [36]: > 100 µM (inactive)
GI50 [37]: > 100 µM (inactive)
GI50 [38]: > 100 µM (inactive)
GI50 [39]: > 100 µM (inactive)
GI50 [40]: > 100 µM (inactive)
GI50 [41]: < 0.01 µM (active)
GI50 [42]: > 100 µM (inactive)
GI50 [43]: > 100 µM (inactive)
GI50 [44]: > 100 µM (inactive)
GI50 [45]: > 100 µM (inactive)
GI50 [46]: > 100 µM (inactive)
GI50 [47]: > 100 µM (inactive)
GI50 [48]: 15.4 µM (inactive)
GI50 [49]: > 100 µM (inactive)
GI50 [50]: > 100 µM (inactive)
GI50 [51]: > 100 µM (inactive)
GI50 [52]: > 100 µM (inactive)
GI50 [53]: > 100 µM (inactive)
GI50 [54]: > 100 µM (inactive)
GI50 [55]: > 100 µM (inactive)

O=C(Nc1ccc2[nH]c3c(-c4ccccc4)nccc3c2c1)c1ccccc1[N+](=O)[O-]
GI50 [2]: 3.24 µM (inactive)
GI50 [3]: 4.88 µM (inactive)
GI50 [4]: 3.94 µM (inactive)
GI50 [56]: 5.74 µM (inactive)
GI50 [5]: 5.93 µM (inactive)
GI50 [6]: 3.45 µM (inactive)
GI50 [57]: 3.74 µM (inactive)
GI50 [8]: 1.76 µM (inactive)
GI50 [9]: 3.22 µM (inactive)
GI50 [10]: 3.58 µM (inactive)
GI50 [11]: 5.71 µM (inactive)
GI50 [12]: 1.53 µM
GI50 [13]: 3.48 µM (inactive)
GI50 [14]: > 100 µM (inactive)
GI50 [16]: 3.56 µM (inactive)
GI50 [17]: 1.85 µM (inactive)
GI50 [18]: 5.4 µM (inactive)
GI50 [19]: 4.06 µM (inactive)
GI50 [20]: 1.74 µM (inactive)
GI50 [21]: 3.97 µM (inactive)
GI50 [22]: 2.92 µM (inactive)
GI50 [23]: 6.52 µM (inactive)
GI50 [24]: 2.99 µM (inactive)
GI50 [26]: 2.22 µM (inactive)
GI50 [27]: 1.82 µM (inactive)
GI50 [58]: 2.3 µM (inactive)
GI50 [28]: 4.37 µM (inactive)
GI50 [29]: 3.45 µM (inactive)
GI50 [31]: 36.9 µM (inactive)
GI50 [32]: 2.17 µM (inactive)
GI50 [33]: 8.11 µM (inactive)
GI50 [34]: 1.61 µM (inactive)
GI50 [35]: 1.83 µM (inactive)
GI50 [36]: 3.81 µM (inactive)
GI50 [37]: 3.52 µM (inactive)
GI50 [38]: 1.64 µM (inactive)
GI50 [39]: 1.37 µM (inactive)
GI50 [40]: 4.95 µM (inactive)
GI50 [41]: 4.09 µM (inactive)
GI50 [44]: 64.6 µM (inactive)
GI50 [45]: 5.58 µM (inactive)
GI50 [46]: 2.47 µM (inactive)
GI50 [47]: 5.47 µM (inactive)
GI50 [48]: 1.85 µM (inactive)
GI50 [49]: 5.06 µM (inactive)
GI50 [50]: 4.18 µM (inactive)
GI50 [51]: 2.96 µM (inactive)
GI50 [52]: 4.11 µM (inactive)
GI50 [55]: 3.59 µM (inactive)
